In ChEMBL document CHEMBL1201862, “PubChem BioAssay data set” (2004):
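Compound exposure: 48 hours, 5 concentrations, 96-well plates. GI50 marks 50% less growth.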 The source made the active and inactive calls. Cut-off read from the data, not from the text of the source: active = GI50 up to about 1.1 µM and inactive = higher.

Tests used:
Experiment in all cases: growth of human tumour cells (NCI), 48 h
786-0 = system: 786-0
ACHN = system: ACHN
EKVX = system: EKVX
HCC 2998 = system: HCC 2998
HT-29 = system: HT-29
MDA-MB-435 = system: MDA-MB-435
NCI-H460 = system: NCI-H460
NCI-H522 = system: NCI-H522
SF-268 = system: SF-268
SF-295 = system: SF-295
SK-MEL-2 = system: SK-MEL-2
SNB-19 = system: SNB-19
SNB-75 = system: SNB-75
SW-620 = system: SW-620
UACC-257 = system: UACC-257
UACC-62 = system: UACC-62
A498 = system: A498
K562 = system: K562
OVCAR-4 = system: OVCAR-4
BT-549 = system: BT-549

Measured: GI50

O=C1OC(OCC#CCOC2OC(=O)C(Cl)=C2Cl)C(Cl)=C1Cl (centres undefined)
inactive: 786-0 4.86 µM | ACHN 16.2 µM | EKVX 20.1 µM | HCC 2998 2.8 µM | HT-29 5.6 µM | MDA-MB-435 12.2 µM | NCI-H460 23.6 µM | NCI-H522 1.7 µM | SF-268 18.2 µM | SF-295 20.7 µM | SK-MEL-2 15.8 µM | SNB-19 16.1 µM | SNB-75 12.4 µM | SW-620 4.45 µM | UACC-257 15 µM | UACC-62 14.2 µM

O=C(Cc1ccccc1)NN1C(=O)C(Cl)C1c1ccccc1Cl (centres undefined)
inactive: 786-0 71.8 µM | A498 > 100 µM | ACHN > 100 µM | EKVX > 100 µM | HCC 2998 > 100 µM | HT-29 > 94.2 µM | K562 33.7 µM | NCI-H460 76 µM | NCI-H522 13.2 µM | OVCAR-4 > 100 µM | SF-268 > 70.1 µM | SF-295 99.8 µM | SK-MEL-2 > 100 µM | SNB-19 > 100 µM | SNB-75 51.3 µM | SW-620 34.4 µM | UACC-257 > 70.6 µM | UACC-62 68.5 µM

CC(=O)c1cccc(N2COC(C)(C)c3nc4ccccc4n3C2)c1
inactive: 786-0 > 100 µM | A498 > 100 µM | ACHN > 100 µM | EKVX > 100 µM | HCC 2998 > 100 µM | HT-29 > 100 µM | K562 > 100 µM | NCI-H460 > 100 µM | NCI-H522 > 100 µM | OVCAR-4 14.3 µM | SF-268 > 100 µM | SF-295 > 100 µM | SK-MEL-2 > 100 µM | SNB-19 > 100 µM | SNB-75 > 100 µM | SW-620 > 100 µM | UACC-257 > 100 µM | UACC-62 > 100 µM

CCOC1=NC(C(F)(F)F)(C(F)(F)F)N=C(N2CCCCC2)O1
inactive: 786-0 > 100 µM | A498 > 100 µM | ACHN > 100 µM | EKVX > 100 µM | HT-29 > 100 µM | K562 > 100 µM | MDA-MB-435 > 100 µM | NCI-H460 > 100 µM | NCI-H522 > 100 µM | OVCAR-4 > 100 µM | SF-268 > 100 µM | SF-295 > 100 µM | SK-MEL-2 > 100 µM | SNB-19 > 100 µM | SNB-75 > 100 µM | SW-620 > 100 µM | UACC-257 > 100 µM | UACC-62 > 100 µM

CC1(C)COC(c2cccc3c2C(=O)c2cccc(Cl)c2-3)=N1
inactive: 786-0 39.4 µM | A498 32.1 µM | ACHN 51.1 µM | EKVX 38.3 µM | HCC 2998 29.7 µM | HT-29 32 µM | K562 33.7 µM | NCI-H460 50.4 µM | NCI-H522 31.8 µM | OVCAR-4 44.1 µM | SF-268 56.5 µM | SF-295 48.4 µM | SK-MEL-2 > 100 µM | SNB-19 21.1 µM | SNB-75 41.7 µM | SW-620 37.8 µM | UACC-257 33.7 µM | UACC-62 51.5 µM

N#CCc1ccc(C(C#N)/C(CCCC(=O)Nc2cccc([N+](=O)[O-])c2)=N/NC(N)=S)cc1 (centres undefined)
inactive: 786-0 > 100 µM | A498 > 100 µM | ACHN > 100 µM | EKVX 36.6 µM | HCC 2998 > 100 µM | HT-29 > 100 µM | K562 81.7 µM | NCI-H460 > 100 µM | NCI-H522 27.9 µM | OVCAR-4 > 100 µM | SF-268 > 100 µM | SF-295 > 100 µM | SK-MEL-2 > 100 µM | SNB-19 76 µM | SNB-75 > 100 µM | SW-620 > 100 µM | UACC-257 > 100 µM | UACC-62 44.1 µM

O=C(C(=O)c1ccc(Cc2ccc(C(=O)C(=O)c3ccccc3)cc2)cc1)c1ccccc1
inactive: 786-0 > 100 µM | A498 > 100 µM | ACHN > 100 µM | EKVX > 100 µM | HCC 2998 > 100 µM | HT-29 > 100 µM | K562 > 100 µM | NCI-H460 > 100 µM | NCI-H522 > 100 µM | OVCAR-4 > 100 µM | SF-268 > 100 µM | SF-295 > 100 µM | SK-MEL-2 > 100 µM | SNB-19 > 100 µM | SNB-75 > 100 µM | SW-620 > 100 µM | UACC-257 > 100 µM | UACC-62 > 100 µM

COc1ccc2c(c1)C=C(C(C)(C)C)NS2(=O)=O
inactive: 786-0 > 100 µM | A498 > 100 µM | ACHN > 100 µM | EKVX > 100 µM | HCC 2998 > 100 µM | HT-29 > 100 µM | K562 > 100 µM | NCI-H460 > 100 µM | NCI-H522 > 100 µM | OVCAR-4 > 100 µM | SF-268 > 100 µM | SF-295 > 100 µM | SK-MEL-2 > 100 µM | SNB-19 > 100 µM | SNB-75 > 100 µM | SW-620 > 100 µM | UACC-257 > 100 µM | UACC-62 > 100 µM

CCOC(=O)c1c(NC(=O)c2ccccc2)c(C#N)c2n1CCCCC2
inactive: 786-0 > 100 µM | ACHN > 100 µM | EKVX > 100 µM | HCC 2998 > 100 µM | HT-29 > 100 µM | K562 > 100 µM | MDA-MB-435 > 100 µM | NCI-H460 > 100 µM | NCI-H522 > 100 µM | OVCAR-4 > 100 µM | SF-268 > 100 µM | SF-295 > 100 µM | SNB-19 > 100 µM | SNB-75 > 100 µM | UACC-257 > 100 µM | UACC-62 > 100 µM

CC1CC(c2cccc3c2OCO3)=Nc2ccccc2S1 (centres undefined)
inactive: 786-0 > 100 µM | A498 > 100 µM | ACHN > 100 µM | EKVX > 100 µM | HCC 2998 > 100 µM | HT-29 > 100 µM | K562 > 100 µM | NCI-H460 > 100 µM | NCI-H522 > 100 µM | OVCAR-4 > 100 µM | SF-268 > 100 µM | SF-295 > 100 µM | SK-MEL-2 > 100 µM | SNB-19 > 100 µM | SNB-75 > 100 µM | SW-620 > 100 µM | UACC-257 > 100 µM | UACC-62 > 100 µM

NS(=O)(=O)c1ccc(NC(=O)c2cc([N+](=O)[O-])cc([N+](=O)[O-])c2)cc1
inactive: 786-0 76.2 µM | A498 65.2 µM | BT-549 > 100 µM | HT-29 43.1 µM | K562 43.7 µM | MDA-MB-435 17.7 µM | NCI-H460 31.8 µM | OVCAR-4 27.7 µM | SF-268 32.4 µM | SK-MEL-2 34.1 µM | SNB-19 45.9 µM | SNB-75 > 100 µM | SW-620 66.4 µM | UACC-257 12.8 µM | UACC-62 15.7 µM

O=C1c2ccccc2C(=O)N1CCc1nc(-c2ccccc2)c[nH]1
inactive: 786-0 > 100 µM | A498 > 100 µM | ACHN > 100 µM | BT-549 > 100 µM | EKVX > 100 µM | HCC 2998 > 100 µM | HT-29 > 100 µM | K562 > 100 µM | NCI-H460 > 100 µM | NCI-H522 > 100 µM | OVCAR-4 > 100 µM | SF-268 > 100 µM | SF-295 > 100 µM | SK-MEL-2 > 100 µM | SNB-19 > 100 µM | SNB-75 > 100 µM | SW-620 > 100 µM | UACC-257 > 100 µM | UACC-62 > 100 µM

CC(=O)N(C)CCc1c[nH]c2ccccc12
inactive: 786-0 > 100 µM | ACHN > 100 µM | BT-549 > 100 µM | EKVX > 100 µM | HT-29 > 100 µM | K562 > 100 µM | MDA-MB-435 > 100 µM | NCI-H460 > 100 µM | NCI-H522 > 100 µM | OVCAR-4 > 100 µM | SF-268 > 100 µM | SF-295 > 100 µM | SK-MEL-2 > 100 µM | SNB-19 > 100 µM | SNB-75 > 100 µM | SW-620 > 100 µM | UACC-257 > 100 µM | UACC-62 > 100 µM

O=C(CC(CC(=O)Oc1c(Br)cc(Br)cc1C(=O)O)C(=O)Oc1c(Br)cc(Br)cc1C(=O)O)Oc1c(Br)cc(Br)cc1C(=O)O
inactive: 786-0 > 100 µM | A498 81.5 µM | ACHN > 100 µM | EKVX 44.9 µM | HCC 2998 42.3 µM | HT-29 49.2 µM | K562 41.4 µM | NCI-H460 56.8 µM | NCI-H522 22.2 µM | OVCAR-4 50.2 µM | SF-268 6.12 µM | SF-295 71.3 µM | SK-MEL-2 39.2 µM | SNB-19 48.8 µM | SNB-75 26.1 µM | SW-620 69.5 µM | UACC-257 83.6 µM | UACC-62 49.9 µM

c1ccc(C2(c3cc4ccccc4[nH]3)OCCO2)cc1
inactive: 786-0 > 100 µM | A498 37.2 µM | ACHN 35.9 µM | BT-549 75.7 µM | EKVX 23.9 µM | HT-29 26.1 µM | K562 22.2 µM | MDA-MB-435 31.4 µM | NCI-H460 36.9 µM | OVCAR-4 32.2 µM | SF-268 47 µM | SF-295 53.1 µM | SK-MEL-2 42.6 µM | SNB-19 > 100 µM | SNB-75 > 100 µM | SW-620 24 µM | UACC-257 31.6 µM | UACC-62 38.8 µM
